According to patent publication US20120220577A1, “GLYCINE B ANTAGONISTS” (Merz Pharma GmbH & Co KgaA, priority 2009, published 2012):

molecular target: T1, glycine binding pocket of the NMDA receptor (Rattus norvegicus, UniProt P35439); experiment: [3H]MDL-105,519 displacement studies (rat cortical membranes); conditions: displacement of 2 nM [3H]-MDL-105,519, rat cortical membranes; read-out: NMDA-MDL 105519-r-CTX - IC50
T1 construct: For isolation of the cell membranes, the cortices are homogenized; from tissue; host or cells: rat cerebral cortex membranes (male Sprague-Dawley)
Experimental: Anaesthetised male Sprague-Dawley rats (200-250 g, Janvier, Le Genest-Isle, France) are decapitated and their brains removed rapidly. […] For isolation of the cell membranes, the cortices are homogenized in 20 volumes of ice-cold 0.32 M sucrose (Sigma-Aldrich, Taufkirchen, Germany) using a glass-Teflon homogenizer. The homogenate is centrifuged at 1000×g for 10 minutes, the pellet is discarded and the supernatant centrifuged at 20,000×g for 20 minutes. The resulting pellet is re-suspended in 20 volumes of distilled water and centrifuged for 20 minutes at 8000×g. The supernatant and the buffy coat are then centrifuged three times (48,000×g for 20 minutes) in the presence of 50 mM Tris-HCl, pH 8.0 (assay buffer). All centrifugation steps are carried out at 4° C. After resuspension in 5 volumes of 50 mM Tris-HCl, pH 7.5, the membrane suspension is frozen rapidly at −80° C. On the day of assay, the membranes are thawed and washed four times by resuspension in 50 mM Tris-HCl, pH 7.5, and centrifugation at 48,000×g for 20 minutes. The final pellet is suspended in assay buffer. […] The final protein concentration used for our studies is 400 μg/ml.
A robotic system designed for binding assays (Tecan Deutschland GmbH, Crailsheim, Germany) is loaded with the membrane solution, solutions for bound control (buffer/DMSO 20%), unlabeled glycine (1 mM) for evaluation of non-specific binding, all compounds to be tested (at 20-fold concentrations), radioligand and respective 96-well plates.
The protein/receptor concentration is held constant whereas the amount of specific bound radioligand is determined using increasing concentrations of ligand.
Firstly, the assay plates are loaded with membrane solution and are shaken at 4° C. The mother plates are then prepared by pipetting the compounds into assay buffer/20% DMSO to obtain the desired final concentrations (dose response curve with five different concentrations, e.g. 10, 3, 1, 0.3, and 0.1 μM). After transferring radioligand into the assay plates, the compounds are added (including the bound and the non-specific binding control). The final DMSO concentration is 1%. The assay plates are incubated and shaken at 4° C. for 1 h, before the mixture is exhausted as rapidly as possible via a vacuum manifold using the Multiscreen HTS glass fibre (type B) filter plates (Millipore, Schwalbach, Germany) under a constant vacuum of 450 mbar. The membranes are washed four times with cold assay buffer ([…]). 50 μL of Ultima Gold scintillation cocktail (PerkinElmer, Rodgau-Jügesheim, Germany) is added to the wet filter plates and incubated at room temperature overnight before counting the disintegration per minutes using a liquid scintillation counter (MicroBeta, PerkinElmer, Rodgau-Jügesheim, Germany).
The residual radioactivity after displacement of the test compound (n=5) is then corrected with respect to the set controls.

| Compound | IC50 [nM] |
| --- | --- |
| COc1cccc(NC(=O)COc2cc(C(=O)O)cc3cc(Cl)cc(Cl)c23)c1 [Example 6, 5,7-Dichloro-4-[(3-methoxyphenylcarbamoyl)-methoxy]-naphthalene-2-carboxylic acid] | 1790 |
| N#Cc1ccc(CNC(=O)COc2cc(C(=O)O)cc3cc(Cl)cc(Cl)c23)cc1 [Example 117, 5,7-Dichloro-4-[(4-cyano-benzylcarbamoyl)-methoxy]-naphthalene-2-carboxylic acid] | 1940 |
| O=C(COc1cc(C(=O)O)cc2cc(Cl)cc(Cl)c12)Nc1ccc(CO)cc1 [Example 9, 5,7-Dichloro-4-[(4-hydroxymethyl-phenylcarbamoyl)-methoxy]-naphthalene-2-carboxylic acid] | 404 |
| CN(C)CCOc1ccc(NC(=O)COc2cc(C(=O)O)cc3cc(Cl)cc(Cl)c23)cc1CO [Example 87, 5,7-Dichloro-4-{[4-(2-dimethylamino-ethoxy)-3-hydroxymethyl-phenylcarbamoyl]-methoxy}-naphthalene-2-carboxylic acid] | 324 |
| O=C(COc1cc(C(=O)O)cc2cc(Cl)cc(Cl)c12)Nc1cccc(CO)c1OCCO [Example 124, 5,7-Dichloro-4-{[2-(2-hydroxy-ethoxy)-3-hydroxymethyl-phenylcarbamoyl]-methoxy}-naphthalene-2-carboxylic acid] | 428 |
| CN(C)C(=O)COc1cc(CN)ccc1NC(=O)COc1cc(C(=O)O)cc2cc(Cl)cc(Cl)c12 [Example 123, 4-[(4-Aminomethyl-2-dimethylcarbamoylmethoxy-phenylcarbamoyl)-methoxy]-5,7-dichloronaphthalene-2-carboxylic acid] | 113 |
| CNC(=O)COc1cc(CN)ccc1NC(=O)COc1cc(C(=O)O)cc2cc(Cl)cc(Cl)c12 [Example 116, 4-[(4-Aminomethyl-2-methylcarbamoylmethoxy-phenylcarbamoyl)-methoxy]-5,7-dichloro-naphthalene-2-carboxylic acid] | 297 |
| O=C(COc1cc(C(=O)O)cc2cc(Cl)cc(Cl)c12)Nc1cccc(CO)c1 [Example 10, 5,7-Dichloro-4-[(3-hydroxymethylphenylcarbamoyl)-methoxy]-naphthalene-2-carboxylic acid] | 351 |
| CNCc1ccc(NC(=O)COc2cc(C(=O)O)cc3cc(Cl)cc(Cl)c23)c(OCC(=O)O)c1 [Example 111, 4-[(2-Carboxymethoxy-4-methylaminomethyl-phenylcarbamoyl)-methoxy]-5,7-dichloro-naphthalene-2-carboxylic acid] | 24 |
| COc1ccc(C(=O)COc2cc(C(=O)O)cc3cc(Cl)cc(Cl)c23)cc1 [Example 4, 5,7-Dichloro-4-[2-(4-methoxyphenyl)-2-oxo-ethoxy]-naphthalene-2-carboxylic acid] | 6740 |
| O=C(COc1cc(C(=O)O)cc2cc(Cl)cc(Cl)c12)Nc1ccccc1 [Example 33, 5,7-Dichloro-4-phenylcarbamoylmethoxynaphthalene-2-carboxylic acid] | 769 |
| CN(C(=O)COc1cc(C(=O)O)cc2cc(Cl)cc(Cl)c12)c1cccc(CC(=O)O)c1 [Example 40, 4-{[(3-Carboxymethylphenyl)-methyl-carbamoyl]-methoxy}-5,7-dichloronaphthalene-2-carboxylic acid] | 3580 |
| O=C(COc1cc(C(=O)O)cc2cc(Cl)cc(Cl)c12)Nc1ccccn1 [Example 129, 5,7-Dichloro-4-(pyridin-2-ylcarbamoylmethoxy)-naphthalene-2-carboxylic acid] | 980 |
| CN(C)C(=O)COc1ccccc1NC(=O)COc1cc(C(=O)O)cc2cc(Cl)cc(Cl)c12 [Example 102, 5,7-Dichloro-4-[(2-dimethylcarbamoylmethoxy-phenylcarbamoyl)-methoxy]-naphthalene-2-carboxylic acid] | 134 |
| O=C(COc1cc(C(=O)O)cc2cc(Cl)cc(Cl)c12)NCc1ccccc1OC(F)(F)F [Example 61, 5,7-Dichloro-4-[(2-trifluoromethoxy-benzylcarbamoyl)-methoxy]-naphthalene-2-carboxylic acid] | 1560 |
| O=C(O)c1cc(OCC(=O)N2CC(C(=O)O)Oc3ccccc32)c2c(Cl)cc(Cl)cc2c1 (stereo not drawn) [Example 43, 4-[2-(3-Carboxy-6,8-dichloronaphthalen-1-yloxy)-acetyl]-3,4-dihydro-2H-benzo[1,4]oxazine-2-carboxylic acid] | 3070 |
| CN(C)CCNC(=O)COc1ccccc1NC(=O)COc1cc(C(=O)O)cc2cc(Cl)cc(Cl)c12 [Example 109, 5,7-Dichloro-4-({2-[(2-dimethylamino-ethylcarbamoyl)-methoxy]-phenylcarbamoyl}-methoxy)-naphthalene-2-carboxylic acid] | 650 |
| CN(C)CCN(C)C(=O)COc1ccccc1NC(=O)COc1cc(C(=O)O)cc2cc(Cl)cc(Cl)c12 [Example 110, 5,7-Dichloro-4-[(2-{[(2-dimethylamino-ethyl)-methyl-carbamoyl]-methoxy}-phenylcarbamoyl)-methoxy]-napthalene-2-carboxylic acid] | 1310 |
| O=C(COc1cc(C(=O)O)cc2cc(Cl)cc(Cl)c12)Nc1ccc(-c2nnn[nH]2)cc1 [Example 89, 5,7-Dichloro-4-{[4-(1H-tetrazol-5-yl)-phenylcarbamoyl]-methoxy}-naphthalene-2-carboxylic acid] | 1260 |
| O=C(COc1cc(C(=O)O)cc2cc(Cl)cc(Cl)c12)N[C@@H]1C[C@H]1c1ccccc1 (relative stereo) [Example 66, 5,7-Dichloro-4-[(trans-2-phenyl-cyclopropylcarbamoyl)-methoxy]-naphthalene-2-carboxylic acid] | 935 |
| O=C(COc1cc(C(=O)O)cc2cc(Cl)cc(Cl)c12)Nc1cccnc1 [Example 127, 5,7-Dichloro-4-(pyridin-3-ylcarbamoylmethoxy)-naphthalene-2-carboxylic acid] | 499 |
| O=C(COc1cc(C(=O)O)cc2cc(Cl)cc(Cl)c12)N[C@@H](CO)c1ccccc1 [Example 29] | 983 |
| O=C(O)CC(Cc1ccccc1)NC(=O)COc1cc(C(=O)O)cc2cc(Cl)cc(Cl)c12 (stereo not drawn) [Example 37, 4-[(1-Carboxymethyl-2-phenylethylcarbamoyl)-methoxy]-5,7-dichloronaphthalene-2-carboxylic acid] | 4780 |
| O=C(COc1cc(C(=O)O)cc2cc(Cl)cc(Cl)c12)Nc1cccc2cc(C(=O)O)oc12 [Example 115, 7-[2-(3-Carboxy-6,8-dichloro-naphthalen-1-yloxy)-acetylamino]-benzofuran-2-carboxylic acid] | 7 |
| O=C(O)COc1ccc(NC(=O)COc2cc(C(=O)O)cc3cc(Cl)cc(Cl)c23)cc1 [Example 44, 4-[(4-Carboxymethoxy-phenylcarbamoyl)-methoxy]-5,7-dichloro-naphthalene-2-carboxylic acid] | 3390 |
| O=C(O)c1cc(OCC(=O)N2CCCC2C(=O)O)c2c(Cl)cc(Cl)cc2c1 (stereo not drawn) [Example 35, 1-[2-(3-Carboxy-6,8-dichloronaphthalen-1-yloxy)-acetyl]-pyrrolidine-2-carboxylic acid] | 1420 |
| NC(=O)COc1cccc(NC(=O)COc2cc(C(=O)O)cc3cc(Cl)cc(Cl)c23)c1 [Example 93, 4-[(3-Carbamoylmethoxy-phenylcarbamoyl)-methoxy]-5,7-dichloro-naphthalene-2-carboxylic acid] | 520 |
| N#CCc1ccc(NC(=O)COc2cc(C(=O)O)cc3cc(Cl)cc(Cl)c23)cc1 [Example 112, 5,7-Dichloro-4-[(4-cyanomethyl-phenylcarbamoyl)-methoxy]-naphthalene-2-carboxylic acid] | 637 |
| COc1cccc(CO)c1NC(=O)COc1cc(C(=O)O)cc2cc(Cl)cc(Cl)c12 [Example 76, 5,7-Dichloro-4-[(2-hydroxymethyl-6-methoxy-phenylcarbamoyl)-methoxy]-naphthalene-2-carboxylic acid] | 1220 |
| O=C(COc1cc(C(=O)O)cc2cc(Cl)cc(Cl)c12)NCc1ccccc1OCc1nnn[nH]1 [Example 125, 5,7-Dichloro-4-{[2-(1H-tetrazol-5-ylmethoxy)-benzylcarbamoyl]-methoxy}-naphthalene-2-carboxylic acid] | 254 |
